ChEMBL document CHEMBL1151315, “Baicalein, an alpha-glucosidase inhibitor from Scutellaria baicalensis” (J Nat Prod, 1998)
Calls of active or inactive are those of the source. The rule behind the calls is not given here.

Experiments:
[1] = target: T1, Sucrase-isomaltase, intestinal (Homo sapiens, UniProt P14410); assay: Inhibition of human intestinal sucrase
[2] = target: Sucrase-isomaltase, intestinal (Rattus norvegicus, UniProt P23739); assay: Inhibition of rat intestinal sucrase
[3] = target: T1, Sucrase-isomaltase, intestinal; assay: Inhibition of human intestinal sucrase in human Caco-2 cell membrane; type: cell-based
Target sequence in this assay (P14410 2-1007 limits assumed): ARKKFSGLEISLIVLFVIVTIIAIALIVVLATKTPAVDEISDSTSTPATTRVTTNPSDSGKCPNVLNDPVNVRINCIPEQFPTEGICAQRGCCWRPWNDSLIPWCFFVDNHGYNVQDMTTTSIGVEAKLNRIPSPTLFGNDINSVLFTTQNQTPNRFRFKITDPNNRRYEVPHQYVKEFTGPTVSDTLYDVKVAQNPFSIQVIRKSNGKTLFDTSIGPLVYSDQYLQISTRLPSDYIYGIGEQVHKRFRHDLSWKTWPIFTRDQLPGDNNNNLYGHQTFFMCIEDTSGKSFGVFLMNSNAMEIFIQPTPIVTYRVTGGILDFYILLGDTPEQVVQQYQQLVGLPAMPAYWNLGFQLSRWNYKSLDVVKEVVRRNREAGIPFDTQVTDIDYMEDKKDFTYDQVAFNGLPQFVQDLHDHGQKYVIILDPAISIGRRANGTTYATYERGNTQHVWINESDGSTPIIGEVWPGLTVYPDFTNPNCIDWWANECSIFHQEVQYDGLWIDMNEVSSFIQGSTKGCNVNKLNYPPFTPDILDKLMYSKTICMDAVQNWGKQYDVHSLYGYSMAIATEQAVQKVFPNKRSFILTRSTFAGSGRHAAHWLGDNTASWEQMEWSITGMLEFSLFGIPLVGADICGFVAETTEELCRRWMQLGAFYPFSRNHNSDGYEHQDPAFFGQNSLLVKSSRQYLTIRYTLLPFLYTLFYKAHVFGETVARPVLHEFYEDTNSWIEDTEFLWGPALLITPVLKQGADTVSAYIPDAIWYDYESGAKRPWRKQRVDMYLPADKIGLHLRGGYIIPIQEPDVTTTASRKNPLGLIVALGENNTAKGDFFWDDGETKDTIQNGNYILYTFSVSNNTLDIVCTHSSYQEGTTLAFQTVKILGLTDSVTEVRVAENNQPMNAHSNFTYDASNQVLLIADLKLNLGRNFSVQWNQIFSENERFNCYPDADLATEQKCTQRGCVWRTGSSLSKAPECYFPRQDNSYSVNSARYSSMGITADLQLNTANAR
Target sequence in this assay (P14410 1008-1827 limits assumed): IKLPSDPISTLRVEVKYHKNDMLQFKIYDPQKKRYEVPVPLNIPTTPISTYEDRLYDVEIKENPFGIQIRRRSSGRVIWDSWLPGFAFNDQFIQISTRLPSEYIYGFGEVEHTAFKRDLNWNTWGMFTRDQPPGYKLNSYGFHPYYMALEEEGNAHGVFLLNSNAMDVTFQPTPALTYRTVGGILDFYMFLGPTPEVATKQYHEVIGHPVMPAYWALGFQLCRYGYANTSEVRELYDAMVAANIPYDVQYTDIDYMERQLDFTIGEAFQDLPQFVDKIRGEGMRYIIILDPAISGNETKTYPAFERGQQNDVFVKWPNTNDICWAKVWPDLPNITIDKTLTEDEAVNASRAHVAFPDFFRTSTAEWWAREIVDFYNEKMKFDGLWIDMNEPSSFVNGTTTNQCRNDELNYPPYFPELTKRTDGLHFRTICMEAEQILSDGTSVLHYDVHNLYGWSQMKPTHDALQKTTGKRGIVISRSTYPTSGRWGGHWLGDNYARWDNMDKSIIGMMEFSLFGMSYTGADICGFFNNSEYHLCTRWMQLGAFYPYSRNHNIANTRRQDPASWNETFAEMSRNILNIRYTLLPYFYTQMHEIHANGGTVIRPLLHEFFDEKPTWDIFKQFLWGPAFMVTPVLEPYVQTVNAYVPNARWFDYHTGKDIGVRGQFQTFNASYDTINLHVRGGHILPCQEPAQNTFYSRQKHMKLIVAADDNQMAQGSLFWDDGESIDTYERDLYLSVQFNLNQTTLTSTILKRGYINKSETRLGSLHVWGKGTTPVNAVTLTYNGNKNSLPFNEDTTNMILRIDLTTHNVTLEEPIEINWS

[4] = target: Sucrase-isomaltase, intestinal (Rattus norvegicus) (UniProt P23739); conditions: Caco-2, 21 uM
Sequence of Sucrase-isomaltase, intestinal (Rattus norvegicus) (P23739 1-1013 limits assumed): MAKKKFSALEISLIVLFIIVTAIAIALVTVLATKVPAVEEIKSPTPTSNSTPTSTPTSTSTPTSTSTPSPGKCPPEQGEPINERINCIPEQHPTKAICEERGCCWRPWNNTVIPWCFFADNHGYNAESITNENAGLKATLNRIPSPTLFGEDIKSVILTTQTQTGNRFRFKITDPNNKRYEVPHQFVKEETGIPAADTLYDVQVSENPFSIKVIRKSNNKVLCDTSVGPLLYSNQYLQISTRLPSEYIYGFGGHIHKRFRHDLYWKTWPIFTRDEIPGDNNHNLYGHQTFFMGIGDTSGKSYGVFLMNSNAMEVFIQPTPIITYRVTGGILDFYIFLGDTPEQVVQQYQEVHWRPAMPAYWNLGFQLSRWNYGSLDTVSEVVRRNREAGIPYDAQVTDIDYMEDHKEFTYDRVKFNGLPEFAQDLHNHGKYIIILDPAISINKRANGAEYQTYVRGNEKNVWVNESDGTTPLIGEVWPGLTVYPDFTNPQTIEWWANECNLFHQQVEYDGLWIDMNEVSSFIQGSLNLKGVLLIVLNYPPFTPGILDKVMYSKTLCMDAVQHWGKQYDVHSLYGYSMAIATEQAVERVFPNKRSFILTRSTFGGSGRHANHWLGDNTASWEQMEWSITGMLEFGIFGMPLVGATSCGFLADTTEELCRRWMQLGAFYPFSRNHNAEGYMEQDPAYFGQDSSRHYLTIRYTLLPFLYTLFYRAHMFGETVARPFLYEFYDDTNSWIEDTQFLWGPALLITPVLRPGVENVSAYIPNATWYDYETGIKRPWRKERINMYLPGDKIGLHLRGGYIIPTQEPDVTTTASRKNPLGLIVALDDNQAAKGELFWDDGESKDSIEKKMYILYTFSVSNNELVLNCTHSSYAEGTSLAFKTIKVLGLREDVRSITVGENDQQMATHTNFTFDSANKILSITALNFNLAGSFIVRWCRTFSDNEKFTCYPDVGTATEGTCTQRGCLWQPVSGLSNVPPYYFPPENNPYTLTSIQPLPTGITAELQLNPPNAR
Sequence of Sucrase-isomaltase, intestinal (Rattus norvegicus) (P23739 1014-1841 limits assumed): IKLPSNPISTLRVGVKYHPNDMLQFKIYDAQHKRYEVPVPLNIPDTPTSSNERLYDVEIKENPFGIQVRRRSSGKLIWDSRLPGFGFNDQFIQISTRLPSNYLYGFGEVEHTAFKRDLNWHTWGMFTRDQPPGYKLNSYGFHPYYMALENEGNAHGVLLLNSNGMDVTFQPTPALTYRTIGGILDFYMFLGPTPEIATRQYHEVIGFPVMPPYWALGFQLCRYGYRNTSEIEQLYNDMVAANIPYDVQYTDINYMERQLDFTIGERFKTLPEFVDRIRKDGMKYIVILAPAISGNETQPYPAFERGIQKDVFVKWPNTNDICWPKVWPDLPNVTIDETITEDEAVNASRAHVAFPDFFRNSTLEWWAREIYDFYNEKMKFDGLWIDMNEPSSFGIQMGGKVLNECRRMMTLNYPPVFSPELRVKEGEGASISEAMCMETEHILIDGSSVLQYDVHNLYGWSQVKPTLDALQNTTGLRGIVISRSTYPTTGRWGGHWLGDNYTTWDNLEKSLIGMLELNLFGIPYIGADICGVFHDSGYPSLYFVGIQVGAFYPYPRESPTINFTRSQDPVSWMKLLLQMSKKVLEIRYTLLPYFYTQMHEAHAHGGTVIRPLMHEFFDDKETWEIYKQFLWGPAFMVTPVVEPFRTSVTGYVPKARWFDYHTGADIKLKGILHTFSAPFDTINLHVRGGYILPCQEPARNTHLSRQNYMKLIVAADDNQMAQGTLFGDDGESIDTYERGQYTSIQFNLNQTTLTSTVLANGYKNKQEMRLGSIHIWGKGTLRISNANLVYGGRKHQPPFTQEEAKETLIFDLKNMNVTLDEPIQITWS
Description: Inhibition of rat intestinal sucrase expressed in human Caco-2 cells at 21 uM

[5] = target: T1, Sucrase-isomaltase, intestinal; assay: Inhibition of human intestinal sucrase in human Caco-2 cell membrane at 25 uM
Target sequence in this assay (P14410 2-1007 limits assumed): as the sequence (P14410 2-1007 limits assumed) above
Target sequence in this assay (P14410 1008-1827 limits assumed): as the sequence (P14410 1008-1827 limits assumed) above

Sequence of Sucrase-isomaltase, intestinal (Rattus norvegicus, UniProt P23739) (P23739 1-1013 limits assumed): as the sequence (P23739 1-1013 limits assumed) above
Sequence of Sucrase-isomaltase, intestinal (Rattus norvegicus, UniProt P23739) (P23739 1014-1841 limits assumed): as the sequence (P23739 1014-1841 limits assumed) above

SMILES | Activity [1] | IC50 [2] [µM] | IC50 [3] [µM] | inhibition [4] [%] | inhibition [5] [%]
O=c1cc(-c2ccccc2)oc2cc(O)c(O)c(O)c12 [BAICALEIN] | Active | 260 | 35 | – | –
OC[C@H]1NC[C@H](O)[C@@H](O)[C@@H]1O | – | – | – | 100 | 95
